target: ROCK2 (Homo sapiens (Human), UniProt O75116); assay: ROCK assay (LABCHIP 3000 peptide phosphorylation assay); assay type: biochemical; settings: 5 μM ATP, 1.5 μM peptide substrate, dose-response
Procedure, shortened: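 Rho kinase variants in 20 mM HEPES pH 7.5, 20 mM MgCl2, 0.015% Brij-35, 4 mM DTT, 5 μM ATP, 1.5 μM FITC-AHA-AKRRRLSSLRA-OH peptide; DMSO <2%. EDTA-stopped; phosphorylated/non-phosphorylated peptide separated by microfluidic LabChip readout. Dose-response inhibition curve-fitted to give IC50.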

ROCK2, sequence (O75116 whole entry, species assumed): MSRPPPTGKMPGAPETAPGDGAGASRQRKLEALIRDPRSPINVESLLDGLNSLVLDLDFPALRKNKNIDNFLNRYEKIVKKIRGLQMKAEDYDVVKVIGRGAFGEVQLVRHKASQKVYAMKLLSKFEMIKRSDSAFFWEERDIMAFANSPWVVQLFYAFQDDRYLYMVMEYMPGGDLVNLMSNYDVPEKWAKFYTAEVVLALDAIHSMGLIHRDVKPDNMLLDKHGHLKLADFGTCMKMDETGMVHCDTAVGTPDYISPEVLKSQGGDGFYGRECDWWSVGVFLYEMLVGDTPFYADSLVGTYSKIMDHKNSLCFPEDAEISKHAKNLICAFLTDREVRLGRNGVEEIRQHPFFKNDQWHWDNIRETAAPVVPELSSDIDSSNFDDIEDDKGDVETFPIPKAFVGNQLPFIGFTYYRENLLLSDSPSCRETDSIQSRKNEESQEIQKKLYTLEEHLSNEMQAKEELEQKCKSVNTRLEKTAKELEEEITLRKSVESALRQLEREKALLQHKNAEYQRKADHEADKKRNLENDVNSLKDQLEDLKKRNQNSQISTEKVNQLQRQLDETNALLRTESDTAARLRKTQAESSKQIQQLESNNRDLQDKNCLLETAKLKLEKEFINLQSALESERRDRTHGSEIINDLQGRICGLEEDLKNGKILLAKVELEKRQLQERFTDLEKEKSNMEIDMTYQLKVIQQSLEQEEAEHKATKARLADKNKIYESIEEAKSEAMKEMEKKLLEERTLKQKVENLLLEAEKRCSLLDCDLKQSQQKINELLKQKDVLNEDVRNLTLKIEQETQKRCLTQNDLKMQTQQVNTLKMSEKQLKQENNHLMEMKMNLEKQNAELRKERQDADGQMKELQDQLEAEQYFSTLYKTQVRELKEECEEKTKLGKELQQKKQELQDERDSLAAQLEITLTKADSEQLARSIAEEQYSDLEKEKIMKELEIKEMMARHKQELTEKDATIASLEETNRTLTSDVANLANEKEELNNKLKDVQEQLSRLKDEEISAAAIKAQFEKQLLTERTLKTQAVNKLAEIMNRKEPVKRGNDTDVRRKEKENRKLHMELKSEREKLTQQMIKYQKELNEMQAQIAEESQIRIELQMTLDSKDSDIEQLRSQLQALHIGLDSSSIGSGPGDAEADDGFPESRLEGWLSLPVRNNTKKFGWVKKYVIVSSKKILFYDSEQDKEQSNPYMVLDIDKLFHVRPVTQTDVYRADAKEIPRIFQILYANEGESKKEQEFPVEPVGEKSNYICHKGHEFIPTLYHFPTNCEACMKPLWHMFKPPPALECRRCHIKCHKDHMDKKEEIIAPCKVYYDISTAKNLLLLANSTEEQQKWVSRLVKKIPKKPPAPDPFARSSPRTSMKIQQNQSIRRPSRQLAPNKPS

Going from `NC(=O)c1cccnc1Oc1ccc(CC(=O)Nc2nc3ccc(F)cn3n2)cc1F` [Example 128, 2-(2-fluoro-4-(2-((6-fluoro-[1,2,4]-triazolo[1,5-a]-pyridin-2-yl)amino)-2-oxoethyl)phenoxy)-nicotinamide] to `Cc1cccc2nc(NC(=O)Cc3ccc(Oc4ncccc4C(N)=O)c(F)c3)nn12` [Example 096, 2-(2-fluoro-4-(2-((5-methyl-[1,2,4]triazolo[1,5-a]pyridin-2-yl)amino)-2-oxoethyl)phenoxy) nicotinamide], the IC50 falls from 301 nM to 110 nM (2.7-fold).

First: NC(=O)c1cccnc1Oc1ccc(CC(=O)Nc2cn3cc(C(F)(F)F)ccc3n2)cc1F [Example 133, 2-(2-fluoro-4-(2-oxo-2-((6-(trifluoro-methyl)imidazo-[1,2-a]pyridin-2-yl)amino)ethyl)-phenoxy)nicotin-amide]
Second: Cn1cc(-c2ccc3nc(NC(=O)Cc4ccc(Oc5ncccc5C(N)=O)c(F)c4)cn3c2)cn1 [Example 036, 2-(2-fluoro-4-(2-((6-(1-methyl-1H-pyrazol-4-yl)imidazo[1,2-a]pyridin-2-yl)amino)-2-oxoethyl)phenoxy)nico-tinamide]
The IC50 of the first is 4.1-fold higher: 198 nM for the first, 48 nM for the second. The second is the more potent here.

Compared with `Cn1nc(NC(=O)Cc2ccc(Oc3ncccc3C(N)=O)c(Cl)c2)c2cccnc21` [Example 010, 2-(2-chloro-4-(2-((1-methyl-1H-pyrazolo[3,4-b]pyridin-3-yl)amino)-2-oxoethyl)phenoxy)nicotinamide], `Cc1sc(NC(=O)Cc2ccc(Oc3ncccc3C(N)=O)c(Cl)c2)nc1-c1cnn(C)c1` [Example 104, 2-(2-chloro-4-(2-((5-methyl-4-(1-methyl-1H-pyrazol-4-yl)thiazol-2-yl)amino)-2-oxoethyl)phenoxy) nicotinamide] is 23-fold lower in IC50: 159 nM for the first, 7 nM for the second. The second is the more potent here.

Going from `CN1CCC(Oc2ccc(NC(=O)Cc3ccc(Oc4ncccc4C(N)=O)c(Cl)c3)cc2)CC1` [Example 095, 2-(2-chloro-4-(2-((4-((1-methylpiperidin-4-yl)oxy)phenyl)ami-no)-2-oxoethyl)phenoxy) nicotinamide] to `NC(=O)c1cccnc1Oc1ccc(CC(=O)Nc2nc3ccccc3n2CC2CC2)cc1Cl` [Example 007, 2-(2-chloro-4-(2-((1-(cyclopropylmethyl)-1H-benzo[d]imidazol-2-yl)amino)-2-oxoethyl)phenoxy)nicotinamide], the IC50 falls from 113 nM to 14 nM (8.1-fold).

Going from `CP(C)(=O)c1ccc2nc(NC(=O)Cc3ccc(Oc4ncccc4C(N)=O)c(F)c3)n(CC3CC3)c2c1` [Example 145, 2-(4-(2-((1-(cyclopropylmethyl)-6-(dimethylphosphoryl)-1H-benzo[d]imidazol-2-yl)amino)-2-oxoethyl)-2-fluorophenoxy)nicotinamide] to `NC(=O)c1cccnc1Oc1ccc(CC(=O)Nc2nc3c(F)cccc3n2CC2CC2)cc1F` [Example 161, 2-(4-(2-((1-(cyclopropyl-methyl)-4-fluoro-1H-benzo[d]-imidazol-2-yl)-amino)-2-oxoethyl)-2-fluorophenoxy)-nicotinamide], the IC50 falls from 133 nM to 16 nM (8.3-fold).

Compared with `Cc1sc(NC(=O)Cc2ccc(Oc3ncccc3C(N)=O)c(F)c2)nc1-c1ccncc1` [Example 044, 2-(2-fluoro-4-(2-((5-methyl-4-(pyridin-4-yl)thiazol-2-yl)amino)-2-oxoethyl)phenoxy)nico-tinamide], `Cc1sc(NC(=O)Cc2ccc(Oc3ncccc3C(N)=O)c(F)c2)nc1-c1cncnc1` [Example 041, 2-(2-fluoro-4-(2-((5-methyl-4-(pyrimidin-5-yl)thiazol-2-yl)amino)-2-oxoethyl)phenoxy)nico-tinamide] is 7.3-fold higher in IC50: 24 nM for the first, 175 nM for the second. The first is the more potent here.

First: Cn1ccc(-c2csc(NC(=O)Cc3ccc(Oc4ncccc4C(N)=O)c(F)c3)n2)cc1=O [Example 017, 2-(2-fluoro-4-(2-((4-(1-methyl-2-oxo-1,2-dihydropyridin-4-yl)thiazol-2-yl)amino)-2-oxoethyl)phenoxy)nicotinamide]
Second: Cn1ccc(-c2ccc3sc(NC(=O)Cc4ccc(Oc5ncccc5C(N)=O)c(F)c4)nc3c2)cc1=O [Example 025, 2-(2-fluoro-4-(2-((5-(1-methyl-2-oxo-1,2-dihydropyridin-4-yl)benzo[d]thiazol-2-yl)amino)-2-oxoethyl)phenoxy)nico-tinamide]
The IC50 of the first is 18-fold higher: 404 nM for the first, 23 nM for the second.

Compared with `NC(=O)c1cccnc1Oc1ccc(CC(=O)Nc2nnc(C(F)(F)F)s2)cc1F` [Example 091, 2-(2-fluoro-4-(2-oxo-2-((5-(trifluoromethyl)-1,3,4-thiadiazol-2-yl)amino)ethyl)phe-noxy)nicotinamide], `Cc1nc(NC(=O)Cc2ccc(Oc3ncccc3C(N)=O)c(F)c2)sc1C` [Example 098, 2-(4-(2-((4,5-dimethylthiazol-2-yl)amino)-2-oxoethyl)-2-fluorophenoxy)nico-tinamide] is 28-fold lower in IC50: 874 nM for the first, 31 nM for the second.

Compared with `CC(C)n1c(NC(=O)Cc2ccc(Oc3ncccc3C(N)=O)c(F)c2)nc2ccccc21` [Example 153, 2-(2-fluoro-4-(2-((1-isopropyl-1H-benzo[d]imidazol-2-yl)amino)-2-oxoethyl)-phenoxy)nicotinamide], `COCCn1c(NC(=O)Cc2ccc(Oc3ncccc3C(N)=O)c(F)c2)nc2ccccc21` [Example 155, 2-(2-fluoro-4-(2-((1-(2-methoxyethyl)-1H-benzo[d]-imidazol-2-yl)-amino)-2-oxo-ethyl)phenoxy)-nicotinamide] is 8.9-fold higher in IC50: 218 nM for the first, 1930 nM for the second. The first is the more potent here.

Going from `[2H]C([2H])([2H])n1ccc(-c2ccc3sc(NC(=O)Cc4ccc(Oc5ncccc5C(N)=O)c(F)c4)nc3c2)n1` [Example 034, 2-(2-fluoro-4-(2-((5-(1-(methyl-d3)-1H-pyrazol-3-yl)benzo[d]thiazol-2-yl)amino)-2-oxoethyl)phenoxy)nico-tinamide] to `Cc1nn(C)c(-c2ccc3sc(NC(=O)Cc4ccc(Oc5ncccc5C(N)=O)c(F)c4)nc3c2)c1C` [Example 027, 2-(2-fluoro-4-(2-oxo-2-((5-(1,3,4-trimethyl-1H-pyrazol-5-yl)benzo[d]thiazol-2-yl)amino)ethyl)phenoxy) nicotinamide], the IC50 falls from 8 nM to 5 nM (1.6-fold).

Compared with `COc1ccn2nc(NC(=O)Cc3ccc(Oc4ncccc4C(N)=O)cc3)nc2c1` [Example 124, 2-(4-(2-((7-methoxy-[1,2,4]-triazolo[1,5-a]-pyridin-2-yl)-amino)-2-oxo-ethyl)phenoxy)-nicotinamide], `CC(C)(O)COc1ccn2nc(NC(=O)Cc3ccc(Oc4ncccc4C(N)=O)c(F)c3)nc2c1` [Example 110, 2-(2-fluoro-4-(2-((7-(2-hydroxy-2-methylpropoxy)-[1,2,4]triazolo[1,5-a]pyridin-2-yl)amino)-2-oxoethyl)phenoxy)nicotinamide] is 1.9-fold lower in IC50: 68.5 nM for the first, 36 nM for the second. The second is the more potent here.

Going from `Cc1sc(NC(=O)Cc2ccc(Oc3ncccc3C(N)=O)c(Cl)c2)nc1-c1ccc(Cl)nc1` [Example 105, 2-(2-chloro-4-(2-((4-(6-chloropyridin-3-yl)-5-methylthiazol-2-yl)amino)-2-oxoethyl)phenoxy) nicotinamide] to `Cc1sc(NC(=O)Cc2ccc(Oc3ncccc3C(N)=O)c(F)c2)nc1-c1ccc(=O)n(C(F)F)c1` [Example 021, 2-(4-(2-((4-(1-(difluoromethyl)-6-oxo-1,6-dihydropyridin-3-yl)-5-methylthiazol-2-yl)amino)-2-oxoethyl)-2-fluorophenoxy)nicotinamide], the IC50 rises from 15 nM to 53 nM (3.5-fold).

`NC(=O)c1cccnc1Oc1ccc(CC(=O)Nc2nc3cc(C(F)(F)F)ccc3n2CC2CC2)cc1Cl` [Example 177, 2-(2-chloro-4-(2-((1-(cyclo-propylmethyl)-5-(trifluoro-methyl)-1H-benzo[d]-imidazol-2-yl)-amino)-2-oxo-ethyl)phenoxy)-nicotinamide] and `NC(=O)c1cccnc1Oc1ccc(CC(=O)Nc2nc3c(F)cccc3n2CC(F)F)cc1Cl` [Example 173, 2-(2-chloro-4-(2-((1-(2,2-difluoro-ethyl)-4-fluoro-1H-benzo[d]-imidazol-2-yl)-amino)-2-oxo-ethyl)phenoxy)-nicotinamide] are within 1.5-fold of each other in IC50: 7 nM for the first, 8 nM for the second.

Going from `COCCn1c(NC(=O)Cc2ccc(Oc3ncccc3C(N)=O)c(F)c2)nc2ccc(C(N)=O)cc21` [Example 158, 2-(2-(4-((3-carbamoyl-pyridin-2-yl)oxy)-3-fluorophenyl)-acetamido)-1-(2-methoxyethyl)-1H-benzo[d]-imidazole-6-carboxamide] to `NC(=O)c1cccnc1Oc1ccc(CC(=O)Nc2nnc(-c3ccncc3)s2)cc1F` [Example 097, 2-(2-fluoro-4-(2-oxo-2-((5-(pyridin-4-yl)-1,3,4-thiadiazol-2-yl)amino)ethyl)phe-noxy)nicotinamide], the IC50 falls from 1720 nM to 336 nM (5.1-fold). The second is the more potent here.

First: N#Cc1ccc2[nH]c(NC(=O)Cc3ccc(Oc4ncccc4C(N)=O)cc3)nc2c1 [Example 071, 2-(4-(2-((5-cyano-1H-benzo[d]imidazol-2-yl)amino)-2-oxoethyl)phenoxy) nicotinamide]
Second: NC(=O)c1cccnc1Oc1ccc(CC(=O)Nc2nc3ccccc3o2)cc1 [Example 054, 2-(4-(2-(benzo[d]oxazol-2-ylamino)-2-oxoethyl)phenoxy) nicotinamide]
The IC50 of the first is 1.7-fold higher: 621 nM for the first, 364 nM for the second.

First: COC(=O)c1ccc2nc(NC(=O)Cc3ccc(Oc4ncccc4C(N)=O)cc3)sc2c1 [Example 070, methyl 2-(2-(4-((3-carbamoylpyridin-2-yl)oxy)phenyl)acet-amido)benzo[d]thi-azole-6-carboxylate]
Second: NC(=O)c1cccnc1Oc1ccc(CC(=O)Nc2nc3cc(-c4c[nH]nc4C(F)(F)F)ccc3s2)cc1F [Example 032, 2-(2-fluoro-4-(2-oxo-2-((5-(3-(trifluoromethyl)-1H-pyrazol-4-yl)benzo[d]thiazol-2-yl)amino)ethyl)phenoxy) nicotinamide]
The IC50 of the first is 1.6-fold lower: 57 nM for the first, 89 nM for the second.

For `Cc1sc(NC(=O)Cc2ccc(Oc3ncccc3C(N)=O)c(F)c2)nc1-c1cnc(C(C)(C)O)nc1` [Example 042, 2-(2-fluoro-4-(2-((4-(2-(2-hydroxypropan-2-yl)pyrimidin-5-yl)-5-methylthiazol-2-yl)amino)-2-oxoethyl)phenoxy)nico-tinamide], the IC50 was 471 nM.
